# From PubChem BioAssay (NCI)
#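 These data come from cells grown in 96-well plates and exposed to compound for 48 hours at five concentrations. Abbreviation: GI50, concentration required for 50% inhibition of growth. At the TGI there is no net growth.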
# Experiments:
# Test in all cases: inhibition of tumour cell growth, NCI panel, 48 h
# OVCAR-3 ovarian = system: OVCAR-3 ovarian
# SNB-75 CNS = system: SNB-75 CNS
# SK-OV-3 ovarian = system: SK-OV-3 ovarian
# ACHN renal = system: ACHN renal
# SK-MEL-2 melanoma = system: SK-MEL-2 melanoma
# MDA-MB-435 = system: MDA-MB-435
# MALME-3M melanoma = system: MALME-3M melanoma
# A549 NSCLC = system: A549 NSCLC
# UACC-257 melanoma = system: UACC-257 melanoma
# CCRF-CEM leukemia = system: CCRF-CEM leukemia
# SW-620 colon = system: SW-620 colon
# KM12 colon = system: KM12 colon
# MOLT-4 leukemia = system: MOLT-4 leukemia
# MDA-MB-231 breast = system: MDA-MB-231 breast
# COLO 205 colon = system: COLO 205 colon
# BT-549 breast = system: BT-549 breast
# HOP-62 NSCLC = system: HOP-62 NSCLC
# 786-0 renal = system: 786-0 renal
# NCI-H226 lung = system: NCI-H226 lung
# HT29 colon = system: HT29 colon
# HL-60(TB) leukemia = system: HL-60(TB) leukemia
# UO-31 renal = system: UO-31 renal
# LOX IMVI melanoma = system: LOX IMVI melanoma
# CAKI-1 renal = system: CAKI-1 renal
# OVCAR-8 ovarian = system: OVCAR-8 ovarian
# HCC-2998 colon = system: HCC-2998 colon
# OVCAR-5 ovarian = system: OVCAR-5 ovarian
# HCT-15 colon = system: HCT-15 colon
# IGROV1 ovarian = system: IGROV1 ovarian
# UACC-62 melanoma = system: UACC-62 melanoma
# OVCAR-4 ovarian = system: OVCAR-4 ovarian
# SNB-19 CNS = system: SNB-19 CNS
# SR leukemia = system: SR leukemia
# SF-539 CNS = system: SF-539 CNS
# SK-MEL-5 melanoma = system: SK-MEL-5 melanoma
# EKVX NSCLC = system: EKVX NSCLC
# MCF7 breast = system: MCF7 breast
# NCI/ADR-RES ovarian = system: NCI/ADR-RES ovarian
# T-47D breast = system: T-47D breast
# RPMI-8226 leukemia = system: RPMI-8226 leukemia
# TK-10 renal = system: TK-10 renal
# U251 CNS = system: U251 CNS
# NCI-H522 lung = system: NCI-H522 lung
# SF-295 CNS = system: SF-295 CNS
# HS 578T breast = system: HS 578T breast
# SN12C renal = system: SN12C renal
# A498 renal = system: A498 renal
# HCT-116 colon = system: HCT-116 colon
# NCI-H460 lung = system: NCI-H460 lung
# PC-3 prostate = system: PC-3 prostate
# HOP-92 NSCLC = system: HOP-92 NSCLC
# K-562 leukemia = system: K-562 leukemia
# SK-MEL-28 melanoma = system: SK-MEL-28 melanoma
# M14 melanoma = system: M14 melanoma
# DU-145 prostate = system: DU-145 prostate
# SF-268 CNS = system: SF-268 CNS
# NCI-H23 lung = system: NCI-H23 lung
# RXF 393 renal = system: RXF 393 renal
smiles,measurement,setting,value
O=C(O)CN1CCN(CC(=O)N2CCN(C(=O)OCc3ccccc3)CC2)CCN(CC(=O)O)CCN(CC(=O)N2CCN(C(=O)OCc3ccccc3)CC2)CC1,TGI,OVCAR-3 ovarian,> 100 µM
same,TGI,SNB-75 CNS,> 100 µM
same,TGI,SK-OV-3 ovarian,> 100 µM
same,TGI,ACHN renal,> 100 µM
same,TGI,SK-MEL-2 melanoma,> 100 µM
same,TGI,MDA-MB-435,> 100 µM
same,TGI,MALME-3M melanoma,> 100 µM
same,TGI,A549 NSCLC,> 100 µM
same,TGI,UACC-257 melanoma,> 100 µM
same,TGI,CCRF-CEM leukemia,> 100 µM
same,TGI,SW-620 colon,> 100 µM
same,TGI,KM12 colon,> 100 µM
same,TGI,MOLT-4 leukemia,> 100 µM
same,TGI,MDA-MB-231 breast,> 100 µM
same,TGI,COLO 205 colon,> 100 µM
same,TGI,BT-549 breast,> 100 µM
same,TGI,HOP-62 NSCLC,> 100 µM
same,TGI,786-0 renal,> 100 µM
same,TGI,NCI-H226 lung,> 100 µM
same,TGI,HT29 colon,> 100 µM
same,TGI,HL-60(TB) leukemia,> 100 µM
same,TGI,UO-31 renal,> 100 µM
same,TGI,LOX IMVI melanoma,> 100 µM
same,TGI,CAKI-1 renal,> 100 µM
same,TGI,OVCAR-8 ovarian,> 100 µM
same,TGI,HCC-2998 colon,> 100 µM
same,TGI,OVCAR-5 ovarian,> 100 µM
same,TGI,HCT-15 colon,> 100 µM
same,TGI,IGROV1 ovarian,> 100 µM
same,TGI,UACC-62 melanoma,> 100 µM
same,TGI,OVCAR-4 ovarian,> 100 µM
same,TGI,SNB-19 CNS,> 100 µM
same,TGI,SR leukemia,> 100 µM
same,TGI,SF-539 CNS,> 100 µM
same,TGI,SK-MEL-5 melanoma,> 100 µM
same,TGI,EKVX NSCLC,> 100 µM
same,TGI,MCF7 breast,> 100 µM
same,TGI,NCI/ADR-RES ovarian,> 100 µM
same,TGI,T-47D breast,> 100 µM
same,TGI,RPMI-8226 leukemia,> 100 µM
same,TGI,TK-10 renal,> 100 µM
same,TGI,U251 CNS,> 100 µM
same,TGI,NCI-H522 lung,> 100 µM
same,TGI,SF-295 CNS,> 100 µM
same,TGI,HS 578T breast,> 100 µM
same,TGI,SN12C renal,> 100 µM
same,TGI,A498 renal,> 100 µM
same,TGI,HCT-116 colon,> 100 µM
same,TGI,NCI-H460 lung,> 100 µM
same,TGI,PC-3 prostate,> 100 µM
same,TGI,HOP-92 NSCLC,> 100 µM
same,TGI,K-562 leukemia,> 100 µM
same,TGI,SK-MEL-28 melanoma,> 100 µM
same,TGI,M14 melanoma,> 100 µM
same,TGI,DU-145 prostate,> 100 µM
C[C@]12CC[C@H]3[C@@H](C[C@@H]4SC(Nc5ccccc5)=N[C@@]45CC(O)CC[C@]35C)[C@@H]1CCC2O (some centres undefined),GI50,OVCAR-3 ovarian,1.28 µM
same,TGI,OVCAR-3 ovarian,2.62 µM
same,GI50,SNB-75 CNS,1.49 µM
same,TGI,SNB-75 CNS,3.05 µM
same,GI50,SK-OV-3 ovarian,5.16 µM
same,TGI,SK-OV-3 ovarian,17.9 µM
same,GI50,ACHN renal,1.71 µM
same,TGI,ACHN renal,3.25 µM
same,GI50,SF-268 CNS,1.66 µM
same,TGI,SF-268 CNS,3.32 µM
same,GI50,NCI-H23 lung,2.03 µM
same,TGI,NCI-H23 lung,5.04 µM
same,GI50,SK-MEL-2 melanoma,2.51 µM
same,TGI,SK-MEL-2 melanoma,5.64 µM
same,GI50,MDA-MB-435,2.25 µM
same,TGI,MDA-MB-435,7.03 µM
same,GI50,MALME-3M melanoma,2.19 µM
same,TGI,MALME-3M melanoma,5.89 µM
same,GI50,A549 NSCLC,2.41 µM
same,TGI,A549 NSCLC,6.02 µM
same,GI50,UACC-257 melanoma,2.54 µM
same,TGI,UACC-257 melanoma,6.68 µM
same,GI50,CCRF-CEM leukemia,1.6 µM
same,TGI,CCRF-CEM leukemia,27.1 µM
same,GI50,SW-620 colon,2.27 µM
same,TGI,SW-620 colon,5.36 µM
same,GI50,KM12 colon,1.68 µM
same,TGI,KM12 colon,3.12 µM
same,GI50,MOLT-4 leukemia,1.87 µM
same,TGI,MOLT-4 leukemia,8.07 µM
same,GI50,MDA-MB-231 breast,1.99 µM
same,TGI,MDA-MB-231 breast,4.63 µM
same,GI50,COLO 205 colon,2.45 µM
same,TGI,COLO 205 colon,5.61 µM
same,GI50,BT-549 breast,1.38 µM
same,TGI,BT-549 breast,4.31 µM
same,GI50,HOP-62 NSCLC,2.47 µM
same,TGI,HOP-62 NSCLC,6.54 µM
same,GI50,786-0 renal,1.22 µM
same,TGI,786-0 renal,3.3 µM
same,GI50,NCI-H226 lung,2.4 µM
same,TGI,NCI-H226 lung,5.57 µM
same,GI50,HL-60(TB) leukemia,2.02 µM
same,TGI,HL-60(TB) leukemia,6.87 µM
same,GI50,UO-31 renal,1.67 µM
same,TGI,UO-31 renal,3.05 µM
same,GI50,LOX IMVI melanoma,1.33 µM
same,TGI,LOX IMVI melanoma,2.77 µM
same,GI50,CAKI-1 renal,2.32 µM
same,TGI,CAKI-1 renal,5.68 µM
same,GI50,OVCAR-8 ovarian,3.43 µM
same,TGI,OVCAR-8 ovarian,14.9 µM
same,GI50,HCC-2998 colon,1.97 µM
same,TGI,HCC-2998 colon,3.56 µM
same,GI50,OVCAR-5 ovarian,2.68 µM
same,TGI,OVCAR-5 ovarian,7.86 µM
same,GI50,HCT-15 colon,1.6 µM
same,TGI,HCT-15 colon,5.15 µM
same,GI50,IGROV1 ovarian,2.78 µM
same,TGI,IGROV1 ovarian,7.85 µM
same,GI50,UACC-62 melanoma,1.83 µM
same,TGI,UACC-62 melanoma,3.96 µM
same,GI50,OVCAR-4 ovarian,3.13 µM
same,TGI,OVCAR-4 ovarian,15.4 µM
same,GI50,SNB-19 CNS,1.86 µM
same,TGI,SNB-19 CNS,3.77 µM
same,GI50,SR leukemia,0.241 µM
same,TGI,SR leukemia,6.1 µM
same,GI50,SF-539 CNS,1.19 µM
same,TGI,SF-539 CNS,2.62 µM
same,GI50,SK-MEL-5 melanoma,1.82 µM
same,TGI,SK-MEL-5 melanoma,3.41 µM
same,GI50,EKVX NSCLC,2.75 µM
same,TGI,EKVX NSCLC,9.26 µM
same,GI50,MCF7 breast,1.8 µM
same,TGI,MCF7 breast,4.73 µM
same,GI50,NCI/ADR-RES ovarian,3.39 µM
same,TGI,NCI/ADR-RES ovarian,91.7 µM
same,GI50,T-47D breast,2.41 µM
same,TGI,T-47D breast,7.59 µM
same,GI50,RPMI-8226 leukemia,0.465 µM
same,TGI,RPMI-8226 leukemia,2.47 µM
same,GI50,TK-10 renal,2.91 µM
same,TGI,TK-10 renal,6.63 µM
same,GI50,U251 CNS,1.36 µM
same,TGI,U251 CNS,2.79 µM
same,GI50,RXF 393 renal,0.798 µM
same,TGI,RXF 393 renal,2.28 µM
same,GI50,NCI-H522 lung,1.9 µM
same,TGI,NCI-H522 lung,4.5 µM
same,GI50,SF-295 CNS,1.06 µM
same,TGI,SF-295 CNS,2.98 µM
same,GI50,HS 578T breast,2.16 µM
same,TGI,HS 578T breast,17.2 µM
same,GI50,SN12C renal,1.65 µM
same,TGI,SN12C renal,3.28 µM
same,GI50,A498 renal,2.16 µM
same,TGI,A498 renal,5.66 µM
same,GI50,HCT-116 colon,1.51 µM
same,TGI,HCT-116 colon,3.01 µM
same,GI50,NCI-H460 lung,1.95 µM
same,TGI,NCI-H460 lung,4.04 µM
same,GI50,PC-3 prostate,2.37 µM
same,TGI,PC-3 prostate,5.85 µM
same,GI50,HOP-92 NSCLC,2.84 µM
same,TGI,HOP-92 NSCLC,6.77 µM
same,GI50,K-562 leukemia,2.45 µM
same,TGI,K-562 leukemia,12.6 µM
same,GI50,SK-MEL-28 melanoma,1.68 µM
same,TGI,SK-MEL-28 melanoma,3.99 µM
same,GI50,M14 melanoma,1.84 µM
same,TGI,M14 melanoma,4.27 µM
same,GI50,DU-145 prostate,1.7 µM
same,TGI,DU-145 prostate,3.62 µM
